US12263202B2, “Method of treating melanocortin-4 receptor pathway-associated disorders” (CHARITÉ—UNIVERSITÄTSMEDIZIN BERLIN, priority 2015, dated 2025)
“Also recorded” adds a separate entry of the source.

Experiments:
[1] = cited from earlier work
Magel2-null mice = experiment: Food intake and energy expenditure in Magel2-null mice (mouse model of PWS); format: in vivo
Protocol: (§1) Experiments were performed to determine the effect of a MC4R agonist, setmelanotide, on Magel2-null mice. Setmelanotide was evaluated in wild type and Magel2-null mice. Adult mice (N=6 per group) were acclimated to metabolic chambers, and food intake and energy expenditure (kcal/h) were measured over time. Mice were 8 weeks old. […] Vehicle and drug (setmelanotide) were administered intraperitoneally (i.p.) (n=6 for each treatment). A 0.1 mg/kg dose of setmelanotide was injected i.p. before the start of the dark cycle in the mice.
(§2) Food intake (cumulative in grams (g)) through 3 hours post dose and overnight cumulative food intake were assessed. Energy expenditure was also measured after dosing. Post-setmelanotide treatment data were compared to the data from post-vehicle injections in the same groups of mice. Statistical analysis was by two-way ANOVA followed by Bonferroni post-testing.

[2] = test system: wild-type obese human patients; experiment: Weight loss in wild-type obese human patients; format: in vivo; settings: 0.01 mg/kg or 0.015 mg/kg twice daily (BID); after 2 or 4 weeks; placebo-subtracted
Protocol: The effect of MC4R agonist setmelanotide on wild-type obese human patients was assessed. The patients were treated with placebo or setmelanotide twice daily (BID) at 0.01 mg/kg or 0.015 mg/kg. There were 9 patients in each treatment group (6 with setmelanotide and 3 with placebo).
The amount of weight loss was determined after 2 weeks or after 4 weeks of treatment. […] The weight loss among the wild-type obese patients was about 0.6 to about 0.9 kg per week.

wildtype mice = experiment: Food intake in wild type mice (comparison to Magel2-null); format: in vivo; settings: 0.1 mg/kg i.p.
Protocol: as §1, §2

wild-type mice = experiment: Food intake over four hours in wild-type mice; format: in vivo
Protocol: (§3) To determine this, wild-type and db/db mice were exposed to vehicle or varying concentrations of setmelanotide (0.0554 mpk; 0.137 mpk, 0.344 mpk, or 1.37 mpk), and their food intake was measured over four hours.

db/db mice = experiment: Food intake over four hours in db/db mice (leptin receptor deficient); format: in vivo
Protocol: as §3

POMC deficient patient = experiment: Phase 2 open label study of setmelanotide in an adult POMC deficient patient with severe obesity and hyperphagia; format: in vivo, human
Protocol: See, e.g., Chen et al. J. Clin. Endocrinol. Metab. 2015; 100:1639-45. The study was an investigator initiated, open label, phase 2, non-randomized proof of concept study (EudraCT No. 2014-002392-28; Clinical Trials Identifier No. NCT02507492) with three parts: pre-study evaluation, main study (about 13 weeks) and after a short interval off drug, a long-term extension phase.
In the pre-study period, baseline examinations were performed, including analysis of metabolic parameters, including OGTT, GnRH test, fasting blood glucose, Leptin measurements as well as bioelectrical impedance analysis (BIA, according standard protocols; Data-in, Nutriguard-MS), indirect calorimetry (CareFusion, VMAX® Encore system), heart rate and blood pressure monitoring (after the first injection and after each dosage escalation blood pressure was measured regularly over 12 hours; in addition, blood was measured at home 3 times daily) as well as a dermatological and psychological examination. All parameters were in the normal range with the exception of elevated fasting insulin reflecting insulin resistance. These measurements were repeated after 13 and 26 weeks of treatment. Baseline examination also included physical examination, e.g., measurement of height and body-weight. Setmelanotide treatment was started at a dose of 0.25 mg subcutaneously (s.c.) once daily. The dose escalated every 1-2 weeks after careful assessment of safety and weight loss. After the first injection and after each dosage escalation, blood pressure was measured regularly over 12 hours. In addition, blood was measured 3 times daily. Setmelanotide injections were given once a day.
After about 90 days of treatment (main study), assessments were repeated, including assessments of metabolic parameters, e.g., blood tests, skin examination, and psychological evaluation. Setmelanotide treatment was ended, and a rapid and large weight gain off-treatment was observed. Subsequently, setmelanotide treatment was continued for another 3 months (extension phase) along with continued assessments (of metabolic parameters). The hunger score was evaluated using a Likert hunger scale from 0 to 10 points (0=no hunger; 10=severe hunger). See, e.g., Sibilia. Psychologicol Topics 19 (2010), 2, 341-354.
Bioelectric Impedance Analysis (BIA) and indirect calorimetric analysis was performed according standard protocols, e.g., as described in Barak et al. JPEN J. Parenter. Enteral Nutr. 27.1(2003):43-6; and Compher et al. J. Am. Diet Assoc.
Statistical analysis: The values of systolic and diastolic blood pressure and heart rate were analyzed with a […].

[3] = higher doses (0.137 mpk, 0.344 mpk, and 1.37 mpk), vs vehicle-treated mice
[4] = after 26 weeks of treatment, listed as MC4R agonist
[5] = after a 13-week treatment vs baseline
[6] = bioelectrical impedance analysis
[7] = off drug after 13 weeks of treatment (three weeks off drug)

In the case of `CC(=O)N[C@@H](CCCNC(=N)N)C(=O)N[C@H]1CSSC[C@@H](C(N)=O)NC(=O)[C@H](Cc2c[nH]c3ccccc23)NC(=O)[C@H](CCCNC(=N)N)NC(=O)[C@@H](Cc2ccccc2)NC(=O)[C@H](Cc2cnc[nH]2)NC(=O)[C@@H](C)NC1=O` [setmelanotide, Ac-Arg-c(Cys-D-Ala-His-D-Phe-Arg-Trp-Cys)-NH2], the “effect on blood pressure” value ([1]; clinical trials (Chen et al. 2015)) is listed as “not been shown to adversely affect blood pressure”, the “effects on sexual activity” value ([1]; in vivo) is listed as “only infrequent” and the “signs of increased blood pressure” value ([1]; in vivo) is listed as “little, if any”. For the same molecule, the tolerability ([1]; in vivo) was “generally well-tolerated”, the “increase of energy expenditure” value (Magel2-null mice; 0.1 mg/kg i.p., 3 hours post-dosing, vs vehicle-dosed Magel2-null mice) was 11% and the “decrease of spontaneous food intake” value (Magel2-null mice; 0.1 mg/kg i.p., over the first 3 hours, P<0.05) was about 75%. For the same molecule, the “food intake suppression, duration” value (Magel2-null mice; 0.1 mg/kg i.p., overnight) was “persisted throughout the dark cycle”, the cumulative food intake (Magel2-null mice; 0.1 mg/kg, P<0.05) was “statistically significant decrease” and the “sensitivity compared with wildtype mice” value (Magel2-null mice; 0.1 mg/kg, food intake) was “much more sensitive than wildtype mice”. For the same molecule, the weight loss [2] was 0.6-0.9 kg per week, the food intake (wildtype mice) was “retained normal levels of food intake” and the “food intake vs vehicle treated mice” value (wild-type mice; 0.0544 mpk dose, 4 hour timepoint) was “identical food intake”. For the same molecule, the food intake (wild-type mice; 0.0544 mpk dose, at 1 and 2 hours) was “Decreased food intake”, the food intake (wild-type mice; [3]) was “significantly decreased food intake” and the “suppression of food intake” value (db/db mice; 0.0544 mpk dose, end of the 4 hour time period) was “about 80%”. For the same molecule, the “suppression of food intake compared with wildtype mice” value (db/db mice; all concentrations) was “more profound suppression of foodintake than wildtype mice”, the food intake (db/db mice; [3]) was “significantly decreased food intake” and the “Likert hunger scale score” value (POMC deficient patient; 1 mg s.c. once daily, scale 0 to 10 (0=no hunger), baseline 9) was 5 points. For the same molecule, the “rate of weight loss” value (POMC deficient patient; 1.5 mg dose, first treatment phase) was 2-3 kg per week, the LDL (POMC deficient patient; after 26 weeks of treatment) was “further reduced” and the total cholesterol (POMC deficient patient; after 26 weeks of treatment) was “further reduced”. For the same molecule, the “total loss of body weight” value (POMC deficient patient; after 26 weeks of treatment) was 35.9 kg, the “total loss of body weight, % of initial body weight” value (POMC deficient patient; after 26 weeks of treatment) was 23.2% and the triglycerides (POMC deficient patient; after 26 weeks of treatment) was “further reduced”. The “total loss of body weight” value (POMC deficient patient; [4]) was “about 36 kg”, the “total loss of body weight, % of initial body weight” value (POMC deficient patient; [4]) was “about 23%” and the HDL cholesterol (POMC deficient patient; [5]) was “did not change”. The LDL cholesterol (POMC deficient patient; [5]) was “reduced”, the total cholesterol (POMC deficient patient; [5]) was “reduced” and the triglycerides (POMC deficient patient; [5]) was “did not change”. For the same molecule, the “total weight loss, % of initial body weight” value (POMC deficient patient; after the first 13 weeks of treatment) was 16.7%, the total weight loss (POMC deficient patient; after the first 13 weeks of treatment, baseline 155 kg) was 25.8 kg and the BMI (POMC deficient patient; after the first 13 weeks, baseline 49.8) was 41.5 kg/m2. For the same molecule, the end body weight (POMC deficient patient; after the first 13 weeks, baseline 155 kg) was 129.2 kg, the “BMI SDS” value (POMC deficient patient; after the first 13 weeks, baseline +4.52) was “+3.86” and the quality of life (POMC deficient patient; after the initiation of treatment) was “improved dramatically”. For the same molecule, the “loss of body weight” value (POMC deficient patient; at 86 weeks of treatment) was 60.5 kg, the “composition of the reduction of body weight” value (POMC deficient patient; [6]) was “mainly due to a loss of body-fat mass” and the lean body mass (POMC deficient patient; [6]) was “not greatly altered”. For the same molecule, the “resting energy expenditure (REE)/kg lean body mass” value (POMC deficient patient; despite severe weight loss) was “stayed relatively stable”, the blood pressure (POMC deficient patient; during all steps of dose escalation) was “no increase” and the “diastolic BP” value (POMC deficient patient; during the study) was “significant decreases”. For the same molecule, the “heart rate (HR)” value (POMC deficient patient; during the study) was “significant decreases”, the “systolic BP” value (POMC deficient patient; during the study) was “significant decreases” and the “adverse event reported by the patient” value (POMC deficient patient; human, in vivo) was “infrequent dry mouth”. For the same molecule, the safety laboratories (POMC deficient patient; human, in vivo) was “no changes in safety laboratories of clinical concern”, the tolerability of treatment (POMC deficient patient; human, in vivo) was “well tolerated” and the changes in hunger (POMC deficient patient; initially, with low dosage) was “only little changes”. The weight loss (POMC deficient patient; initially, with low dosage) was “moderate”, the “Likert hunger score after treatment was stopped” value (POMC deficient patient; [7]) was 7 points and the “weight regained after treatment was stopped” value (POMC deficient patient; [7]) was 4.8 kg. For the same molecule, the “blood glucose values (fasting and after glucose challenge)” value (POMC deficient patient; oral glucose tolerance test, during the study) was “remained always in the normal range; also recorded: relatively stable”, the “weight loss per week” value (POMC deficient patient; overall, over the course of 26 weeks of treatment) was 2-2.5 kg per week and the “rate of weight loss” value (POMC deficient patient; second treatment phase (1 mg for 4 weeks and 1.5 mg thereafter)) was 1-2 kg per week. For the same molecule, the “elevated insulin levels / insulin resistance (insulin sensitivity)” value (POMC deficient patient; under setmelanotide treatment) was “improved significantly” and the serum leptin concentrations (POMC deficient patient; with loss of body-fat mass) was “significant decrease”.
